Results as given in patent US5869457A, “Modified proteins and their use for controlling viral infections” (Rijksuniversiteit Te Groningen, priority 1991, dated 1999).

Columns and labels:
[1] = system: OKT4A epitope of the CD4 receptor; assay: CD4 immunofluorescence assay, OKT4A mAb-CD4 interaction on MT-4 cells; settings: at 25 μg/ml
plasma = assay: anticoagulant action determined as APTT; assay type: biochemical
Description: The compounds were dissolved in PBS of pH 7.2 and 30 μl were added to 270 μl of plasma.
APTT=activated partial thromboplastin time (seconds) APTT was determined electromechanically using standard methods.

| Molecule | inhibition of OKT4A mAb-CD4 interaction [1] | Anticoagulant action, APTT (plasma; 0.01 μg/ml) [s] | Anticoagulant action, APTT (plasma; 0.1 μg/ml) [s] | Anticoagulant action, APTT (plasma; 1 μg/ml) [s] | Anticoagulant action, APTT (plasma; 3 μg/ml) [s] | Anticoagulant action, APTT (plasma; 5 μg/ml) [s] | Anticoagulant action, APTT (plasma; 10 μg/ml) [s] | Anticoagulant action, APTT (plasma; 100 μg/ml) [s] | anticoagulant activity as side effect (plasma; in words) |
| --- | --- | --- | --- | --- | --- | --- | --- | --- | --- |
| O=C(O)C1=CC(=C(c2ccc(O)c(C(=O)O)c2)c2ccc(O)c(C(=O)O)c2)C=CC1=O [Aurintricarboxylic acid (ATA), Aurintricarboxylic acid] | completely inhibited |  |  |  |  |  |  |  |  |
| Heparin |  | 38.4 | 40.3 | 40.5 | 65 | 140 | 220 | > 400 | serious anticoagulant activity |
